In patent publication US9072695B2, “Aromatase activator” (Kao Corporation, priority 2011, dated 2015):

Biological target: T1, aromatase (Homo sapiens, UniProt P11511)
T1 construct: host or cells: human skin fibroblasts (HDF1616)
T1 sequence (P11511 1-503): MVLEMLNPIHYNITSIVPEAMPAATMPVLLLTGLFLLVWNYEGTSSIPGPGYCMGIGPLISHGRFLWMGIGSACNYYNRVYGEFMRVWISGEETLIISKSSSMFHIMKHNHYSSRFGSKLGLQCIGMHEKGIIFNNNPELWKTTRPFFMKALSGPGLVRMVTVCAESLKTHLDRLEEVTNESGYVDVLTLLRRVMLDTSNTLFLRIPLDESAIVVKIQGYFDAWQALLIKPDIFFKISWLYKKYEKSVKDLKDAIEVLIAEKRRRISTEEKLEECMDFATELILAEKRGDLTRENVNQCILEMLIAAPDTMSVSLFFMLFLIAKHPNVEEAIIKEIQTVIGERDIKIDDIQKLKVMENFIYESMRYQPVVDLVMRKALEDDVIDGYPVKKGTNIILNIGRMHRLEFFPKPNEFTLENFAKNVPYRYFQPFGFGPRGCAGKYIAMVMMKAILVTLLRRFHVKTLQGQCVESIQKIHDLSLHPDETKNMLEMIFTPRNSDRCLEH
Test: Aromatase activation effect in fibroblasts derived from human skin (3H2O release from 1β-3H-androst-4-ene-3,17-dione)
Format: cell-based
Details: for Aromatase activity: fibroblasts (HDF1616) derived from human skin, amount added 4.65 × 10^−6 mol/L, control 6.85; for Aromatase activation effect (in words): fibroblasts derived from human skin, 4.65×10^−6 mol/L, compared with control (no addition)
Experimental: The aromatase activation effect of the compounds 1 and 2 prepared in Production Example 1 was examined with reference to Stampfer M J, Willett W C, Colditz G A, Rosner B, Speizer F E and Hennenkens C H, N. Engl. J. Med., 313, 1044-1049, 1985.
Fibroblasts (HDF1616: KURABO) derived from human skin were planted in a 24-well cell culture plate (FALCON) to culture until it became confluent. The medium was removed and 900 μL of a serum-free medium was added to the wells to culture for 24 hr. At this time, the compound 1 or 2 prepared using an aqueous 95% ethanol solution such that the final concentration was 4.65×10^−6 mol/L was added to the wells. Also, a sample in which an aqueous 95% ethanol solution was added and a sample (no addition) in which no material was added were prepared as controls.
1β-3H-androst-4-ene-3,17-dione (Perkin Elmer) which was the substrate of aromatase was added in the serum-free medium such that the concentration was 37 kBq/100 μL and added in an amount of 100 μL in each well to culture for 24 hr. 900 μL of the culture product was taken, in a 2 mL tube from one well and 1 mL of CHCl3 was added to the cultured product, which was then stirred vigorously. The cultured product was centrifuged at 15,000 rpm for 10 min to transfer the upper layer (water layer) to another tube. 200 μL of Charcoal/Dextran (which is one obtained by suspending 5 g of Charcoal, dextran coated (SIGMA) in 50 mL of H2O) was added to the upper layer, which was fairly mixed and then allowed to stand at ambient temperature for 30 min. The mixture was centrifuged at 15,000 rpm for 10 min and the supernatant was transferred to a new tube. 1 mL of […] was added to the supernatant, which was then vigorously stirred and centrifuged at 15,000 rpm for 10 min and the upper layer (water layer) was added to 5 mL of Ultima Gold (Perkin Elmer) to measure the radioactivity of ^3H by a liquid scintillation counter (Perkin Elmer Tricarb 2550). The same serum-free medium containing no cell was incubated for the same hours without adding a drug, followed by the same procedures to measure the radioactivity of ^3H and the radioactivity was subtracted from the above measured radioactivity.
1β-3H-androst-4-ene-3,17-dione releases ^3H2O by an aromatase reaction and is converted into estrogen having no radioactivity. In this experimental method, the radioactivity of released ^3H2O is detected, showing that the higher the radioactivity is, the higher the aromatase activity is.

Row | Aromatase activity [fmol/day/well] | Aromatase activation effect (in words) | Compound
1 | 22.34 | activated aromatase existing in cells | C=C1CC[C@H](C)C(C)(C)[C@@H]1CC/C(C)=C/CC[C@@]1(C)[C@H](CCCO)/C(=C(/C)C=O)CC[C@]1(C)O [Compound 2]
2 | 21.68 | activated aromatase existing in cells | CC1=CC[C@H](C)C(C)(C)[C@@H]1CC/C(C)=C/CC[C@@]1(C)[C@H](CCCO)/C(=C(/C)C=O)CC[C@]1(C)O [Compound 1]
